Data published in ChEMBL document CHEMBL1138381, “Synthesis and anticonvulsant activity of sulfonamide derivatives-hydrophobic domain” (Bioorg Med Chem Lett, 2007).
Calls of active or inactive are those of the source. The calls are words filed in the database; no cut-off is given here.

Key:
[1] = tested on: Mus musculus; experiment: Anticonvulsant activity against pentylenetetrazole-induced seizures in Albino mouse at 300 mg/kg, ip after 4 hrs; type: functional, organism-based; parameters: dose 300 mg/kg
[2] = tested on: Rattus norvegicus; experiment: Anticonvulsant activity against maximal electroshock-induced seizure in rat at 30 mg/kg, po upto 4 hrs; type: functional, organism-based; parameters: dose 30 mg/kg
[3] = tested on: Mus musculus; experiment: Neurotoxicity in Albino mouse at 300 mg/kg, ip after 4 hrs by rotarod test; type: toxicity, organism-based; parameters: dose 300 mg/kg, route intraperitoneal; details: in vivo
[4] = tested on: Rattus norvegicus; experiment: Toxicity in rat at 30 mg/kg upto 4 hrs; type: organism-based; parameters: dose 30 mg/kg; details: in vivo
[5] = tested on: Rattus norvegicus; experiment: Anticonvulsant activity against maximal electroshock-induced seizure in rat at 30 mg/kg, po after 1 hr; type: functional, organism-based; parameters: dose 30 mg/kg
[6] = tested on: Rattus norvegicus; experiment: Anticonvulsant activity against maximal electroshock-induced seizure in rat at 30 mg/kg, po after 0.5 hrs; type: functional, organism-based; parameters: dose 30 mg/kg
[7] = tested on: Mus musculus; experiment: Anticonvulsant activity against maximal electroshock-induced seizure in Albino mouse at 300 mg/kg, ip after 0.5 hrs; type: functional, organism-based; parameters: dose 300 mg/kg
[8] = tested on: Mus musculus; experiment: Neurotoxicity in Albino mouse at 300 mg/kg, ip after 0.5 hrs by rotarod test; type: toxicity, organism-based; parameters: dose 300 mg/kg, route intraperitoneal; details: in vivo
[9] = tested on: Mus musculus; experiment: Anticonvulsant activity against maximal electroshock-induced seizure in Albino mouse at 30 mg/kg, ip after 4 hrs; type: functional, organism-based; parameters: dose 30 mg/kg
[10] = tested on: Rattus norvegicus; experiment: Anticonvulsant activity against maximal electroshock-induced seizure in rat at 30 mg/kg, po after 0.25 hrs; type: functional, organism-based; parameters: dose 30 mg/kg
[11] = tested on: Mus musculus; experiment: Anticonvulsant activity against pentylenetetrazole-induced seizures in Albino mouse at 300 mg/kg, ip after 0.5 hrs; type: functional, organism-based; parameters: dose 300 mg/kg
[12] = tested on: Mus musculus; experiment: Neurotoxicity in Albino mouse at 100 mg/kg, ip after 4 hrs by rotarod test; type: toxicity, organism-based; parameters: dose 100 mg/kg, route intraperitoneal; details: in vivo
[13] = tested on: Mus musculus; experiment: Neurotoxicity in Albino mouse at 100 mg/kg, ip after 0.5 hrs by rotarod test; type: toxicity, organism-based; parameters: dose 100 mg/kg, route intraperitoneal; details: in vivo
[14] = tested on: Mus musculus; experiment: Anticonvulsant activity against maximal electroshock-induced seizure in Albino mouse at 30 mg/kg, ip after 0.5 hrs; type: functional, organism-based; parameters: dose 30 mg/kg
[15] = tested on: Mus musculus; experiment: Anticonvulsant activity against maximal electroshock-induced seizure in Albino mouse at 300 mg/kg, ip after 4 hrs; type: functional, organism-based; parameters: dose 300 mg/kg
[16] = tested on: Mus musculus; experiment: Anticonvulsant activity against maximal electroshock-induced seizure in Albino mouse at 100 mg/kg, ip after 0.5 hrs; type: organism-based; parameters: dose 100 mg/kg, route intraperitoneal; details: in vivo
[17] = tested on: Mus musculus; experiment: Anticonvulsant activity against pentylenetetrazole-induced seizures in Albino mouse at 100 mg/kg, ip after 0.5 hrs; type: functional, organism-based; parameters: dose 100 mg/kg
[18] = tested on: Mus musculus; experiment: Anticonvulsant activity against maximal electroshock-induced seizure in Albino mouse at 100 mg/kg, ip after 4 hrs; type: organism-based; parameters: dose 100 mg/kg, route intraperitoneal; details: in vivo

Row | SMILES | Activity [1] | Activity [2] | Activity [3] | Activity [4] | Activity [5] | Activity [6] | Activity [7] | Activity [8] | Activity [9] | Activity [10] | Activity [11] | Activity [12] | Activity [13] | Activity [14] | Activity [15] | Activity [16] | Activity [17] | Activity [18]
1 | CCNC(=S)Nc1ccc(S(=O)(=O)Nc2nc3ccc(Cl)cc3s2)cc1 | Active | Active | Toxic | Non-toxic | inactive | inactive | inactive | Non-toxic | Active | inactive | inactive | – | – | – | – | – | – | –
2 | O=C1NC(=O)C(c2ccccc2)(c2ccccc2)N1 [PHENYTOIN] | inactive | – | – | – | – | Active | – | – | Active | – | inactive | Toxic | Toxic | Active | – | – | – | –
3 | Cc1ccc(NC(=S)Nc2ccc(S(=O)(=O)Nc3ccc(C)cc3)cc2)cc1 | inactive | – | Non-toxic | – | – | – | Active | Toxic | – | – | Active | – | – | – | Active | – | – | –
4 | CNC(=S)Nc1ccc(S(=O)(=O)Nc2ccc(Br)cc2)cc1 | inactive | – | Non-toxic | – | – | – | Active | Toxic | – | – | Active | – | – | – | – | – | – | –
5 | CNC(=S)Nc1ccc(S(=O)(=O)Nc2ccc(Cl)cc2)cc1 | – | – | Toxic | – | – | – | Active | Toxic | – | – | Active | – | – | – | Active | – | – | –
6 | Cc1ccc(NC(=S)Nc2ccc(S(=O)(=O)Nc3ccc(Br)cc3)cc2)cc1 | inactive | – | Toxic | – | – | – | – | Toxic | – | – | Active | – | – | – | Active | Active | – | –
7 | CCNC(=S)Nc1ccc(S(=O)(=O)Nc2nc3ccc(OC)cc3s2)cc1 | inactive | – | Non-toxic | – | – | – | inactive | Non-toxic | – | – | inactive | – | – | – | inactive | – | – | –
8 | CNC(=S)Nc1ccc(S(=O)(=O)Nc2nc3ccc(OC)cc3s2)cc1 | inactive | – | Non-toxic | – | – | – | Active | Non-toxic | – | – | inactive | – | – | – | inactive | – | – | –
9 | CCNC(=S)Nc1ccc(S(=O)(=O)Nc2nc3ccc(F)cc3s2)cc1 | inactive | – | Non-toxic | – | – | – | Active | Non-toxic | – | – | Active | – | – | – | inactive | – | – | –
10 | CCC1(C)CC(=O)NC1=O (stereo not given) [ETHOSUXIMIDE] | inactive | – | Non-toxic | – | – | – | inactive | Non-toxic | – | – | Active | – | – | – | inactive | – | – | –
11 | NC(=O)N1c2ccccc2C=Cc2ccccc21 [CARBAMAZEPINE] | inactive | – | Toxic | – | – | – | – | – | – | – | – | – | Toxic | Active | inactive | – | Active | –
12 | CNC(=S)Nc1ccc(S(=O)(=O)Nc2nc3ccc(Cl)cc3s2)cc1 | Active | Active | Toxic | Non-toxic | – | – | inactive | Non-toxic | – | – | inactive | – | – | – | – | – | – | Active
13 | CNC(=S)Nc1ccc(S(=O)(=O)Nc2nc3ccc(F)cc3s2)cc1 | inactive | – | Non-toxic | – | – | – | Active | Non-toxic | – | – | inactive | – | – | – | inactive | – | – | –
14 | CCCC(CCC)C(=O)O [VALPROIC ACID] | inactive | – | Non-toxic | – | – | – | inactive | Non-toxic | – | – | Active | – | – | – | inactive | – | – | –
15 | Cc1ccc(NC(=S)Nc2ccc(S(=O)(=O)Nc3ccc(Cl)cc3)cc2)cc1 | – | – | Toxic | – | – | – | – | Toxic | – | – | Active | – | – | – | Active | Active | – | –
